{
  "source": "patent US12161632B2",
  "about": "“Compositions and methods of treating cardiac fibrosis with ifetroban” (Cumberland Pharmaceuticals Inc., priority 2014, dated 2024)",
  "key": {"[1]": {"tested_on": "pulmonary artery banding (PAB) model of right ventricular pressure overload", "experiment": "PAB model of right ventricular pressure overload: hemodynamics, echocardiography, histology (Example VII)", "format": "in vivo", "conditions": "PAB mice; for RV fibrosis / fibrotic area (Masson's trichrome): ifetroban 25 mg/kg/day in drinking water; for cardiomyocyte diameter / cellular hypertrophy: ifetroban 25 mg/kg/day", "experimental": "Both male and female age-matched C57Bl/6 or FVB/NJ mice, obtained by in-house breeding, were used for pulmonary artery banding. LysM-GFP mice were obtained by cross-breeding LysM-Cre×mTomato/GFP reporter mice B6.129P2-Lyz2tm1(cre)Ifo/J (a gift from Tim Blackwell)×Gt(ROSA)26Sortm4(ACTB-tdTomato, -EGFP)Luo (JAX stock #007676). The day following surgery, mice were given either 25 mg/kg/day IFETROBAN (Cumberland Pharmaceuticals Inc., Nashville, TN) in drinking water or normal drinking water (vehicle) for 2 weeks or 6 weeks prior to hemodynamic evaluation. Mice were weighed and water was changed once a week.\nAn RVSP of 30 mmHg was used to define PAH, and only samples from mice at or above this threshold were used for analysis of PAB groups. […] Two weeks after PAB, fibrosis in the RV of untreated mice has increased from <5% to […] (blue stain) in histologic sections of frozen RV stained with Masson's trichrome.\nIn the previous experiments, there was an increase in RV mass but not yet any change in cardiac output or other functional parameters, apart from E/A wave ratio, following PAB. To determine whether the decrease in fibrosis seen with TP receptor antagonism leads to increased preservation of cardiac function, the period following PAB-induced pressure overload was extended to 6 weeks and dosing with ifetroban was continued to 6 weeks, as well. […] This was associated with a decreased ejection fraction and decreased fractional shortening, signs of cardiac failure. All of these were prevented in PAB mice that received ifetroban, despite similar RVSP. Mice underwent sham surgery or PAB and echocardiography and pressure-loop catheterization performed after 6 weeks. End diastolic and systolic volume of the left ventricle were measured using the average of values calculated using both spherical and cylindrical models. Also obtained from echocardiography were the left ventricular stroke volume and ejection fraction, as well as percent fractional shortening."}, "[2]": {"tested_on": "pulmonary artery banded wild-type mice", "experiment": "Pulmonary artery banding, two or six weeks of treatment: histology and echocardiography (Example VI)", "format": "in vivo", "conditions": "PAB mice, 30 mg/kg/day, 6 weeks", "experimental": "Wild-type mice underwent pulmonary artery banding followed by two weeks or six weeks of treatment with ifetroban (30 mg/kg/day via the drinking water) vs. control (plain drinking water). The pulmonary artery band mimics pulmonary hypertension and right heart failure."}, "[3]": {"tested_on": "α and ß isoforms of the TP receptor", "conditions": "cited from earlier work"}, "[4]": {"tested_on": "pulmonary artery banding (PAB) model of right ventricular pressure overload", "experiment": "PAB model of right ventricular pressure overload: hemodynamics, echocardiography, histology (Example VII)", "format": "in vivo", "conditions": "PAB mice, low dose 3 mg/kg/day via drinking water, 2 weeks"}, "[5]": {"tested_on": "right ventricle gene expression", "experiment": "Right ventricle gene expression, Affymetrix Mouse Gene 2.0 arrays (Example IV)", "format": "in vivo, mice", "conditions": "banded mice, 25 mg/kg/day, 2 weeks", "experimental": "(§1) FVB/N mice or mice with a GFP macrophage-specific lineage tracing marker (LysM-Cre) underwent pulmonary banding to directly increase load stress (or sham surgery for controls), and starting the following day received either vehicle or the thromboxane receptor antagonist Ifetroban sodium in their drinking water (25 mg/kg/day). After 2 weeks, noninvasive hemodynamics were obtained by transthoracic echocardiography and invasive hemodynamics were obtained by pressure-volume catheterization of the right heart prior to sacrifice. Hearts were assessed for fibrosis and macrophage infiltration. RNA from right ventricles were isolated and used for unbiased discovery of altered gene expression using Affymetrix Mouse Gene 2.0 arrays performed on four groups (banded or sham). LysM-Cre mouse hearts were flash-frozen whole, cross-sectioned, and assessed by microscopy for fibrosis and macrophage infiltration. Differences between groups were assessed by ANOVA and t-tests. Correlations were assessed by Spearman correlation."}, "[6]": {"tested_on": "RV proteins (TP receptor, MHC, phospho-SMAD2/3, TSP-4)", "conditions": "for TSP-4 protein expression in RV: high dose 25 mg/kg/day", "experimental": "Mice underwent pulmonary arterial banding (PAB) or sham surgery, and were treated for 2 weeks with vehicle or ifetroban (competitive antagonist of TPα/TPβ) in the drinking water.\nThe effect of ifetroban treatment on known fibrotic and anti-fibrotic signaling pathways was examined.\nIn another arm of this example, low dose (3 mg/kg/day) ifetroban was administered to mice via the drinking water for 2 weeks following pulmonary artery banding."}, "[7]": {"tested_on": "right ventricle under load stress (pulmonary banding)", "experiment": "Pulmonary banding load stress model: hemodynamics, heart fibrosis and macrophage infiltration (Example IV)", "format": "in vivo", "conditions": "banded mice, 25 mg/kg/day in drinking water, 2 weeks", "experimental": "as §1"}, "[8]": {"tested_on": "pulmonary artery banding (PAB) mouse model of pulmonary hypertension", "experiment": "Pulmonary artery banding (PAB) model: cardiovascular phenotyping and histology (Example V)", "format": "in vivo, mice", "conditions": "14 days", "experimental": "Experimental Methods: In this pulmonary artery banding (PAB) animal model, we used wildtype or Rosa26-rtTA2 mice on a normal diet. Mice were anesthetized and subject to either PAB (20 mice) or sham surgery (10 mice) at 4-6 months of age. Following the procedure, the mice were given either ifetroban water at 30 mg/kg/day or normal drinking water, and after 14 days of treatment we performed cardiovascular phenotyping followed by terminal sacrifice, histology and gene expression arrays.\nEchocardiograms to assess cardiac output were obtained the day prior to catheterization and sacrifice. Our standard cardiovascular phenotyping continued with systemic pressure measurement by tail vein cuff, and intrajugular heart catheterization with measurement of right ventricular systolic pressure (RVSP) for peak pressure, diastolic pressure, diastolic time constant, arterial elastance, ejection fraction, and stroke volume.\nFollowing sacrifice, right ventricular hypertrophy was assessed in each animal as a percentage of heart weight. A random fraction of the right hearts were fixed in formalin for histology and examined for indices of fibrosis; other hearts were snap frozen for gene expression analysis via RNA microarray. Right hearts and lungs were collected for analysis of protein expression and gene expression array. Left lungs were fixed and stained. Platelet deposition was examined in small pulmonary artery vessels. The remaining organs were harvested and frozen in liquid nitrogen for potential gene expression analysis."}, "[9]": {"conditions": "PAB mice, 25 mg/kg/day, 2 weeks"}},
  "note": "“Also recorded” adds a separate entry of the source. Where two headings read alike, the source gives them in different places.",
  "data": [
    {"molecule": "CCCCCNC(=O)c1coc([C@H]2[C@@H](Cc3ccccc3CCC(=O)O)[C@@H]3CC[C@H]2O3)n1", "note": "[ifetroban, [1S-(1α,2α,3α,4α)]-2-[[3-[4-[(Pentylamino)carbonyl]-2-oxazolyl]-7-oxabicyclo[2.2.1]hept-2-yl]methyl]-benzenepropanoic acid]", "values": [
      {"measurement": "RV mass (ratio of right ventricular weight to left ventricle+septum weight)", "setting": "[1]; 25 mg/kg/day, 2 weeks", "result": "similarly increased in vehicle- and ifetroban-treated PAB groups; also recorded: not blocked"},
      {"measurement": "tricuspid E/A wave ratio (echocardiography)", "setting": "[1]; 25 mg/kg/day, 2 weeks, p<0.05 by ANOVA", "result": "increased; also recorded: improved"},
      {"measurement": "RV mass (ratio of right ventricular weight to left ventricle+septum weight)", "setting": "[1]; 25 mg/kg/day, 2 weeks, listed as Ifetroban", "result": "allowing increased RV mass"},
      {"measurement": "signs of cardiac failure (left ventricular dilation, increased stroke volume, decreased ejection fraction and fractional shortening)", "setting": "[1]; 25 mg/kg/day, 6 weeks", "result": "more functional adaptation and decreased indications of cardiac failure; also recorded: prevented"},
      {"measurement": "RV fibrosis / fibrotic area (Masson's trichrome)", "setting": "[1]; 2 weeks", "result": "almost completely abolished"},
      {"measurement": "RV fibrosis / fibrotic area (Masson's trichrome)", "setting": "[1]; 2 weeks, listed as Ifetroban", "result": "near normalization of fibrotic area"},
      {"measurement": "RV fibrosis / fibrotic area (Masson's trichrome)", "setting": "[1]; 2 weeks, listed as ifetrobn", "result": "antifibrotic effect"},
      {"measurement": "cardiomyocyte diameter / cellular hypertrophy", "setting": "[1]; 2 weeks", "result": "blocked"},
      {"measurement": "cardiomyocyte diameter / cellular hypertrophy", "setting": "[1]; 2 weeks, listed as Ifetroban", "result": "prevented cellular hypertrophy"},
      {"measurement": "protection against pressure overload", "setting": "[1]; ifetroban, two weeks following PAB", "result": "protected against pressure overload"},
      {"measurement": "cardiomyocyte diameter in the right ventricle", "setting": "[2]", "result": "protected against increases in cardiomyocyte diameter"},
      {"measurement": "echocardiography, left ventricular cardiac function (end diastolic/systolic volume, stroke volume, ejection fraction, fractional shortening)", "setting": "[2]", "result": "cardiac function values similar to the animals that underwent sham surgery; also recorded: echo values similar to sham surgery animals"},
      {"measurement": "right ventricular fibrosis", "setting": "[2]", "result": "reduced right ventricular fibrosis"},
      {"measurement": "blockade of TPα and TPβ receptor isoforms", "setting": "[3]", "result": "effectively blocked"},
      {"measurement": "fibrosis of the right ventricle (histology)", "setting": "[4]", "result": "does not prevent fibrosis"},
      {"measurement": "anti-fibrotic pathways (THBS4, Asporin, LTBP2), expression arrays", "setting": "[5]", "result": "induction of anti-fibrotic pathways including THBS4 and TGF-beta inhibitors Asporin and LTBP2"},
      {"measurement": "pathways related to functional hypertrophy, expression arrays", "setting": "[5]", "result": "induction of pathways related to functional hypertrophy"},
      {"measurement": "pro-fibrotic pathways (PDGF-D, FBXO32), expression arrays", "setting": "[5]", "result": "reduction of pro-fibrotic pathways such as PDGF-D and FBXO32"},
      {"measurement": "TP receptor expression in the RV (Western blot)", "setting": "[6]; 2 weeks following PAB or drug treatment", "result": "remained constant"},
      {"measurement": "phospho-SMAD2/3 associated with PAB", "setting": "[6]; PAB mice versus vehicle-treated mice", "result": "less phospho-SMAD2/3"},
      {"measurement": "localization of TSP-4 in RV", "setting": "[6]; PAB mice, 25 mg/kg/day", "result": "increased cardiomyocyte expression of TSP-4"},
      {"measurement": "α-MHC protein expression in RV (Western blot)", "setting": "[6]; [9]", "result": "no change in α-MHC expression"},
      {"measurement": "β-MHC protein expression in RV (Western blot)", "setting": "[6]; [9]", "result": "strongly induced"},
      {"measurement": "induction of the pro-fibrotic TGF-beta pathway", "setting": "[6]; PAB mice, 2 weeks", "result": "blocked induction"},
      {"measurement": "TSP-4 protein expression in RV", "setting": "[6]; PAB mice, 2 weeks, 25 mg/kg/day", "result": "increased TSP-4 protein; also recorded: increases the expression of antifibrotic TSP-4"},
      {"measurement": "TSP-4 protein expression in RV", "setting": "[6]; PAB mice, 2 weeks, listed as Ifetroban, 25 mg/kg/day", "result": "increased expression of anti-fibrotic thrombospondin-4"},
      {"measurement": "TSP-4 expression in RV (Western blot densitometry)", "setting": "[6]; PAB mice, low dose 3 mg/kg/day, 2 weeks", "result": "does not"},
      {"measurement": "fibrosis (heart)", "setting": "[7]", "result": "reduction in fibrosis"},
      {"measurement": "hemodynamic markers of right heart function under load stress", "setting": "[7]", "result": "preserved right heart function under load stress"},
      {"measurement": "recruitment of inflammatory cells", "setting": "[7]", "result": "reduction in recruitment of inflammatory cells"},
      {"measurement": "fibrosis in banded right ventricles", "setting": "[8]; 30 mg/kg/day", "result": "decreases fibrosis in banded right ventricles"},
      {"measurement": "right ventricular systolic pressure (RVSP)", "setting": "[8]; PAB mice, 30 mg/kg/day in water", "result": "did not have an effect"},
      {"measurement": "ratio of tricuspid E to A wave", "setting": "[8]; banded mice, 30 mg/kg/day, p<0.05 unpaired t test", "result": "significantly increased"},
      {"measurement": "fibrosis in cross-section of the right ventricle (trichrome-stained, 20×)", "setting": "[8]; sham surgery and banded, 30 mg/kg/day", "result": "reduced fibrosis in the right ventricle for both the sham surgery and the banded right ventricle"}
    ]}
  ]
}
